Data set [1] has as its system HBsAg of HepG2-NTCP cells. Nature of the data set: In vitro anti-HBV activity in HepG2-NTCP cells: HBsAg in culture supernatant by ELISA. Type of data set: cell-based. Here is the method:
(§1) On day 0, HepG2-NTCP cells were plated into 48-well plates (7.5×10^4 cells/well). On day 1, change to medium containing 2% DMSO.
(§2) On day 2, the cells were pretreated by adding compounds for 1 hour, and then HepG2-NTCP cells were infected by the addition of […] (compounds were added simultaneously). The test compound was diluted to three concentrations for single treatment, one concentration for combined treatment. Testing in duplicate. The control compound is ETV. See Table 2 for compound concentrations.
(§3) On days 3, 5 and 7, the medium was replaced with fresh medium containing compounds.
(§4) On the ninth day, the supernatant was collected, which was then detected by ELISA for levels of HBeAg and HbsAg, and by qPCR for level of HBV DNA. Meanwhile, detecting cell viability by CellTiter-Glo. Collecting cells for cryopreservation (for spare).
(§5) 2) Detecting the levels of HBeAg and HBsAg in cell culture supernatant by ELISA. The test was performed in accordance with the instructions of the kit, and was briefly described as follows:
(§6) Taking respective 50 μl of standard, sample and control compound, and adding to the detection plate, then adding 50 μl of enzyme conjugate to each well, incubating at 37° C. for 60 minutes, washing the plate with washing solution, blotting dry, then adding 50 μl of premixed luminescent substrate, and incubating at room temperature in the dark for 10 minutes, and finally measuring luminescence values by a microplate reader.
(§7) Inhibition rate of Hbe/sAg (%)=(1-HBe/sAg level of sample compound/HBe/sAg level of DMSO control group)×100%

A further data set relates to HBeAg and HBsAg. The settings on record: as reported in the literature; cited from earlier work.
Data set [2] concerns HBV DNA of HepG2-NTCP cells. Nature of the data set: In vitro anti-HBV activity in HepG2-NTCP cells: HBV DNA in culture supernatant by qPCR. Type of data set: cell-based. Here is the method: as §1, §2, §3, §4
1) Detecting the level of HBV DNA in cell culture supernatant by qPCR
According to the instructions of QIAamp 96 DNA Blood Kit, extracting DNA from cell culture supernatant. The level of HBV DNA was detected by qPCR with HBV-specific primers. PCR reaction: 95° C., 10 min; 95° C., 15 sec, 60° C., 1 min, 40 cycles.
Inhibition rate of HBV DNA (%)=(1-HBV copy number of sample compound group/HBV copy number of DMSO group)×100%

The subject of data set [3] is HBeAg in HepG2-NTCP cells. The data set is described as follows: microbe, parasite or virus in culture. Type of data set: cell-based, HBV. The method, then:
as §1, §2, §3, §4, §5, §6, §7

The conditions of data set [4]: compared with TDF; cited from earlier work.
In the next data set the test system is hepatitis B virus (HBV). The conditions noted are these: compared with TDF; cited from earlier work.
A further data set concerns HepG2-NTCP cells. Nature of the data set: Cell viability assay by CellTiter-Glo. It counts as cell-based. The settings on record: different concentrations, FIG. 7. The method, then:
as §4
3) Cell Viability Assay by CellTiter-Glo Cell
The cell viability was determined according to the instructions of the CellTiter-Glo kit. The assay is briefly described as follows: Collecting the cell culture supernatant, adding CellTiter-Glo (1:1 dilution of medium) to each well, incubating at room temperature for 10 minutes, and measuring luminescence values with a microplate reader.

In a further data set the test system is AAV-HBV mouse models. Nature of the data set: In vivo experiments in AAV-HBV mouse models: plasma HBV DNA, HBsAg, HBeAg. The conditions noted are these: AAV-HBV mice, 60mpk by gavage once a day, 90-day period of administration. The method, then:
Experimental method: AAV-HBV mouse models were administered by gavage, once a day; the compound group (G10 HD042, i.e., celecoxib): the dose of celecoxib was 60mpk; and the blank group (G1 vehicle control group): 10% DMSO+40% PEG400+5% Tween 80+45% Saline (V/V) solution.
During the 90-day period of administration, blood was collected on the 6th, 13th, 20th, 27th, 34th, 41st, 48th, 55th, 62nd, 69th, […], 83rd, and 90th days, respectively, and the plasma levels of HBV DNA, HBsAg, HBeAg and anti-HBs were tested with the results shown in FIGS. 4 to 5.

The mark [5] stands for this setting: Hepatitis B virus, 216 h, read-out: HBsAg inhibition rate.
The mark [6] stands for this setting: Hepatitis B virus, 216 h, read-out: HBeAg inhibition rate.
The mark [7] stands for this setting: repeated parallel experiments, FIG. 6.

For `C=C1C(CO)C(O)CC1n1cnc2c(=O)nc(N)[nH]c21` [ETV, 2-amino-1,9-dihydro-9-[(1S,3R,4S)-4-hydroxy-3-(hydroxymethyl)-2-methylenecyclopentane]-6H-purin-6-one], the inhibition at 0.0001 µM in data set [1] (setting [5]) was 1.22%; in data set [2] (Hepatitis B virus, 216 h, 0.1 nM ETV, HepG2-NTCP cells, supernatant day 9, read-out: HBV DNA inhibition rate), 44.7%; in data set [3] (setting [6]), -1.35%. Also, the “effect on reducing HBeAg and HBsAg” value in the data set on HBeAg and HBsAg was “little effect”.

Regarding `CC(C)OC(=O)[C@H](C)N[P@](=O)(CO[C@H](C)Cn1cnc2c(N)ncnc21)Oc1ccccc1` [Tenofovir alafenamide, Tenofovir Alafenamide], in data set [4], the “half-life relative to tenofovir disoproxil TDF” value was 225 times and the “stability in plasma relative to tenofovir disoproxil TDF” value is on record as 200 times. In addition, in the data set on hepatitis B virus (HBV), the “antiviral activity relative to tenofovir disoproxil TDF” value is reported as 10 times.

As to `Cc1ccc(-c2cc(C(F)(F)F)nn2-c2ccc(S(N)(=O)=O)cc2)cc1` [compound of formula 1, celecoxib], in data set [1] (setting [5]), the inhibition at 1 µM was found to be 21.5%, the inhibition at 10 µM is -7.65% and the inhibition at 20 µM came out at 46.1%. Further, in data set [1] (setting [7]), the “inhibitory effect on HBsAg, repeated cell experiments” value is “significant dose-dependent manner”. Also, the “cytotoxicity on HepG2-NTCP cells” value in the data set with HepG2-NTCP cells is recorded as “an effect on the virus rather than cytotoxicity”. Besides, in the data set on AAV-HBV mouse models, the “reduction of plasma level of HBV DNA” value is 0.72 Log 10 copy/mL, the “reduction of plasma level of HBeAg” value is reported as 0.34 Log 10 PEIU/mL and the “reduction of plasma level of HBsAg” value is 0.76 Log 10 IU/mL. For the same compound, the inhibition at 1 µM in data set [2] (Hepatitis B virus, 216 h, 1 μM compound of formula 1, HepG2-NTCP cells, supernatant day 9, read-out: HBV DNA inhibition rate) is 7.59%. Moreover, in data set [2] (Hepatitis B virus, 216 h, 10 μM compound of formula 1, HepG2-NTCP cells, supernatant day 9, read-out: HBV DNA inhibition rate), the inhibition at 10 µM came out at 49.2%. Further, the inhibition at 20 µM in data set [2] (Hepatitis B virus, 216 h, 20 μM compound of formula 1, HepG2-NTCP cells, supernatant day 9, read-out: HBV DNA inhibition rate) turned out to be 73%. In addition, the “inhibitory effect on HBV DNA, repeated cell experiments” value in data set [2] (setting [7]) is listed as “significant dose-dependent manner”. Further, in data set [3] (setting [6]), the inhibition at 1 µM amounted to 18%, the inhibition at 10 µM was 50.4% and the inhibition at 20 µM was found to be 78.1%. Besides, the “inhibitory effect on HBeAg, repeated cell experiments” value in data set [3] (setting [7]) was “significant dose-dependent manner”.

Values taken from patent publication US20230158000A1, “PHARMACEUTICAL COMPOSITION FOR TREATING OR PREVENTING VIRAL HEPATITIS AND THE USE THEREOF” (Holy Haid Lab Corp, priority 2020, published 2023).
